# Values of other authors as cited in patent US8260406B2, “System and method for analyzing complex curvature of ECG curves” (Aalborg Universitet, priority 2006, dated 2012).
# Tested on: cardiac repolarization (T-wave) in healthy subjects
# Details: 30 min after sotalol administration; increase; p<0.05; occurring prior to QT prolongation; PCA of ECG Holter recordings
smiles,measurement,value
CC(C)NCC(O)c1ccc(NS(C)(=O)=O)cc1 (stereo not shown) [sotalol],turbulence of repolarization velocity increased by,9.02%
